Experimental data as given in patent US20050124497A1, “Delta1-pyrrolines and their use as pest control agents” (priority 2002, published 2005).

Test system: caterpillars of the diamondback moth (Plutella xylostella)
Assay: Plutella test
Format: in vivo
Conditions: 100 ppm active compound, cabbage leaves dipped, kill after 7 d
Experimental: To produce a suitable preparation of active compound, 1 part by weight of active compound is mixed with the stated amounts of solvent and emulsifier, and the concentrate is diluted with emulsifier-containing water to the desired concentration.
Cabbage leaves (Brassica oleracea) are treated by being dipped into the preparation of active compound of the desired concentration and are populated with caterpillars of the diamondback moth (Plutella xylostella) while the leaves are still moist.
After the desired period of time, the kill in % is determined. 100% means that all caterpillars have been killed; 0% means that none of the caterpillars have been killed.

With `Fc1cc(-c2nc3cc(-c4ccccc4)ccc3o2)ccc1C1CCC(c2c(F)cccc2F)=N1` (stereo not shown) [drawing 46] the “Efficacy in % after 7 d” value was 100%.
